For 121 compounds, melting point results are on record in a melting point compilation (Tetko et al.).

One may read the melting point as the temperature of the solid-liquid transition. Take `CC(=O)N1CCN(c2ccc(C(=O)O)cc2[N+](=O)[O-])CC1`: the melting point fell in the range of 262 to 264 °C. To `CC1CNc2cc(F)ccc2C(=O)N1` (stereo unspecified) belongs 169 to 171 °C. Next, `NC(=O)CCCC(=O)O`: 83 to 85 °C; `O=C(Nc1cccc2c1CCCN2)c1ccc(F)cc1`: 156 to 158 °C; `O=c1[nH]ccc2sccc12`: 159 to 161 °C. To `COc1ncc(Br)cc1CC#N` belongs 39 to 41 °C. `O=C1Nc2ccc(S(=O)(=O)Cl)c3cccc1c23` returned a melting point of 197 to 199 °C. `N#CCCn1c(S)nc2ccccc21` returned a melting point of 154 to 158 °C. `Clc1cc[nH]n1`: the melting point is 68 to 70 °C. To `N#Cc1n[nH]c2ccc(Cl)cc12` belongs 210 to 212 °C; to `Cc1c(N)cccc1S(C)(=O)=O`, 117 to 119 °C.

The compound `O=C(O)COCCN1CCN(C(c2ccccc2)c2ccc(Cl)cc2)CC1` (stereo unspecified) showed a melting point of 224 to 226 °C. To `CS(=O)(=O)N1CCN(c2ccc(N)cn2)CC1` belongs 178 to 180 °C; to `O=C(CCl)Nc1ccnn1Cc1ccccc1Cl`, 119 to 121 °C. Next, `CCCc1ccc(S(N)(=O)=O)cc1`: 208 to 210 °C; `CC(=O)NC(Cc1c[nH]c2ccc(Br)cc12)C(=O)O` (stereo unspecified): 206 to 208 °C. Compound `COC(=O)c1cc(Br)c(N)s1` gave a melting point of 88 to 90 °C. Next, `N#CC1CNCCN1Cc1ccccc1` (stereo unspecified): 98 to 100 °C. `Sc1nnc(C2CC2)n1C1CC1` registered a melting point of 138 to 140 °C.

`Cc1occc1C(=O)NCC(=O)O` returned a melting point of 143 to 145 °C. Turning to `CS(=O)(=O)N1CCc2cc(C(=O)O)ccc21`, the melting point fell in the range of 230 to 232 °C.

Turning to `O=S(=O)(NC1CCCNC1)c1cccc(F)c1` (stereo unspecified), the melting point lay within 137 to 139 °C.

With `Cc1cc(C(=O)O)cc(S(N)(=O)=O)c1C`, the melting point is 266 to 268 °C. In the case of `N#Cc1ccc(CS(=O)(=O)CC(=O)O)cc1`, the melting point fell in the range of 197 to 199 °C. To `Cc1cc(S(=O)(=O)Cl)ccc1OCCCC(=O)O` belongs 135 to 137 °C; to `O=C(O)c1cccc(CN2CCCC2)c1`, 196 to 198 °C; to `O=C(O)CCNC(=O)C1CC1`, 107 to 109 °C. Compound `O=C(O)C1CC(=O)N(c2ccccc2Br)C1` (stereo unspecified) gave a melting point of 177 to 179 °C.

On to `Nc1cccc(OCC(F)(F)F)c1`, for which the melting point lay in the range of 34 to 36 °C. Next, `O=C(CCl)N1CCN(S(=O)(=O)c2ccccc2Cl)CC1`: 215 to 217 °C; `CC(=O)c1ccc(F)cc1N(C)C`: 57 to 59 °C.

With `COc1ccccc1C1(C)CC1C(=O)O` (stereo unspecified), the melting point fell in the range of 166 to 168 °C. Next, `FC(F)(F)Cn1c(-c2ccccc2)cnc1S`: 179 to 181 °C. To `CC(C)n1ncc2cc(N)cnc21` belongs 85 to 87 °C. Next, `O=C(O)C1CCCN(c2ccc(Cl)nn2)C1` (stereo unspecified): 179 to 181 °C; `O=C(O)c1cc2ccc(-c3ccccc3)cc2[nH]1`: 250 to 252 °C.

The compound `Nc1cc(-c2ccco2)nn1-c1ccc(Cl)cc1` had a melting point of 129 to 131 °C. To `CC(C)(C(=O)O)C(O)c1cccc(O)c1` (stereo unspecified) belongs 163 to 165 °C. To `CC(=O)Nc1cccc(NC(=O)CCl)c1` belongs 173 to 175 °C. Next, `O=C(O)c1c[nH]nc1-c1ccccc1`: 286 to 288 °C; `CCCCCCC(NC)C(=O)O` (stereo unspecified): 259 to 261 °C. Compound `CC1CCc2c(C(=O)O)csc2C1` (stereo unspecified) had a melting point of 178 to 180 °C.

As for `COc1ccc(N2CC(C(=O)O)CC2=O)cc1OC` (stereo unspecified), the melting point lay in the range of 201 to 203 °C. Next, `CNC(C(=O)O)c1ccc(F)cc1` (stereo unspecified): 276 to 278 °C; `CC(C)n1cnc(S(=O)(=O)Cl)c1`: 62 to 64 °C; `Cc1ccc2c(c1)C(=O)N(CCCC(=O)O)C2=O`: 239 to 241 °C. To `O=C(O)C1CCCN(C(=O)c2ccc(Br)c(F)c2)C1` (stereo unspecified) belongs 157 to 159 °C; to `COc1ccc(Br)cc1NCc1cccnc1`, 66 to 68 °C. To `CCS(=O)(=O)c1ccccc1C(=O)O` belongs 49 to 53 °C; to `Cc1c(Cl)cccc1OCC(=O)O`, 143 to 145 °C; to `Nc1cc(C2CCC2)nn1-c1ccccc1`, 87 to 89 °C. As for `CN1C(=C(C#N)C(=O)CCl)Nc2ccccc21`, the melting point lay within 244 to 246 °C.

`Cc1nnc(S)n1C1CCCCC1` registered a melting point of 164 to 166 °C. As for `O=C(O)CCOc1ccccc1[N+](=O)[O-]`, the melting point lay within 121 to 123 °C. To `Cc1cc(C)cc(Oc2ccc(N)cc2)c1` belongs 55 to 57 °C; to `Cc1ccnn1-c1cccc(N)c1`, 93 to 95 °C. Next, `NCc1ccc(-c2ccc3c(c2)CCO3)cc1`: 77 to 79 °C; `O=C(Nc1ccccc1)C1CCc2ccccc2N1` (stereo unspecified): 124 to 126 °C; `NS(=O)(=O)c1cc(C(F)(F)F)ccc1Cl`: 154 to 156 °C. To `O=C(O)c1ccc(-n2cccc2)c(F)c1` belongs 252 to 254 °C.

Regarding `Oc1ccc(-c2nc3ccccc3s2)cc1Cl`, the melting point is 186 to 188 °C.

For the compound `CCOC(=O)c1cnc2ccc(Cl)cn2c1=O`, the melting point lay in the range of 137 to 139 °C.

The compound `O=C(O)c1csc(-c2ccc(Cl)s2)n1` gave a melting point of 247 to 249 °C.

The compound `O=S(=O)(Cl)c1scc(Br)c1Br` had a melting point of 111 to 113 °C. Next, `COc1ccc(N=C=S)cc1Cl`: 88 to 90 °C; `Nc1nc(-c2nc3ccccc3s2)cs1`: 248 to 250 °C.

In turn, `CC(C)C(O)Cc1ccccc1Br` (stereo unspecified) came in with a melting point of 73 to 75 °C. To `Clc1cncc(OCc2ccccc2)n1` belongs 47 to 49 °C; to `COc1cc(N)c([N+](=O)[O-])cc1OC`, 174 to 176 °C. Next, `Cc1c(N)cccc1S(N)(=O)=O`: 212 to 214 °C. Next, `O=S1(=O)Cc2ccc(Cl)cc2N1`: 149 to 151 °C. In turn, `CCN(CC)S(=O)(=O)c1ccc(OC(C)C)c(NC(=O)CCl)c1` registered a melting point of 223 to 226 °C. `O=c1[nH]c2ccc([N+](=O)[O-])cc2o1` showed a melting point of 242 to 244 °C.

With `Nc1cc(C(F)(F)F)ccc1C1CCNCC1`, the melting point is 86 to 88 °C.

`Cc1ccc(NS(C)(=O)=O)c(N)c1` had a melting point of 116 to 118 °C. Next, `CC(=O)Nc1ccc(N)nc1`: 166 to 168 °C; `O=C(O)C1(c2ccc(F)cc2F)CCOCC1`: 134 to 136 °C; `Cn1c(=O)n(C)c2cc(S(N)(=O)=O)c(Br)cc21`: 314 to 316 °C. Next, `CC(C(=O)O)C(C)(C)C` (stereo unspecified): 34 to 36 °C. `CN(CC(=O)O)C1CCCC1O` (stereo unspecified) had a melting point of 150 to 152 °C. To `COc1ccc(Cc2nnc(N)s2)cc1` belongs 174 to 176 °C; to `O=C(O)c1ccc(-n2cc(Br)cn2)nn1`, 209 to 211 °C. Compound `Fc1cc2ncnc(Cl)c2cc1F` came in with a melting point of 89 to 91 °C. To `CCCCn1c(SCC(=O)O)nc2cc(C(F)(F)F)ccc21` belongs 120 to 122 °C; to `COCc1ccccc1C(=O)O`, 94 to 96 °C; to `O=Cc1cnn(C2CCS(=O)(=O)C2)c1` (stereo unspecified), 111 to 113 °C.

Take `Cn1ncc2c(=O)[nH]c(CCl)nc21`: the melting point was in the range of 232 to 234 °C. Next, `NCCN1C(=O)C2C3C=CC(C3)C2C1=O` (stereo unspecified): 69 to 71 °C; `Cc1ccc(Cc2cnc(N)s2)cc1F`: 139 to 141 °C. In turn, `O=C(O)CCn1c(=O)oc2cc(S(=O)(=O)N3CCCC3)ccc21` displayed a melting point of 190 to 192 °C.

Compound `COc1ccc(C(=O)c2ccco2)cc1` showed a melting point of 62 to 64 °C. Next, `O=C(O)c1n[nH]ccc1=O`: 199 to 201 °C; `Cc1nc(-c2ccccc2)c(N)n1C`: 145 to 147 °C. With `O=C(O)CCn1cccn1`, the melting point fell in the range of 76 to 78 °C. Regarding `CC(C)(C)OC(=O)NCc1nc(-c2ccc(N)cc2)n[nH]1`, the melting point lay within 214 to 216 °C. `CCCn1c(CCC(=O)O)nc2cc(S(N)(=O)=O)ccc21` came in with a melting point of 259 to 261 °C. To `CCCCCc1cc(N)on1` belongs 40 to 42 °C; to `O=C(O)CNC(=O)C1CCOCC1`, 166 to 168 °C.

The compound `O=C(O)c1ccc(Cn2cc(Cl)cn2)o1` registered a melting point of 117 to 119 °C.

Take `O=C(c1ccc(S(=O)(=O)Cl)cc1)N1CCCCC1`: the melting point lay in the range of 97 to 99 °C. `Cn1c(S)nc2ccsc2c1=O` displayed a melting point of 313 to 315 °C. The compound `CC(Cl)C(=O)Nc1c(Cl)cc(Cl)cc1Cl` (stereo unspecified) came in with a melting point of 153 to 155 °C.

For `COC(=O)c1cc(O)ccc1[N+](=O)[O-]`, the melting point lay within 101 to 103 °C. To `O=Cc1coc2ccc([N+](=O)[O-])cc2c1=O` belongs 157 to 161 °C; to `O=C(O)c1cc(COc2ccc(Cl)cc2Cl)on1`, 151 to 153 °C.

For `O=C1OC(C(O)CO)C(O)=C1O` (stereo unspecified), the melting point fell in the range of 192 to 196 °C. With `CC(=O)c1cc([N+](=O)[O-])ccc1N`, the melting point lay within 144 to 146 °C. Next, `O=C(O)c1cccc(NC(=O)c2ccc(Br)cc2)c1`: 306 to 308 °C. As to `Cc1ccccc1COc1cccc(N)c1`, the melting point is 61 to 63 °C. As for `Sc1nnc(N2CCOCC2)n1CC1CCCO1` (stereo unspecified), the melting point fell in the range of 186 to 188 °C. For `N#Cc1cccc(Oc2ccc(Cl)cc2)n1`, the melting point lay in the range of 86 to 88 °C. For the compound `O=Cc1cc(C23CC4CC(CC(C4)C2)C3)n[nH]1`, the melting point was 134 to 136 °C. With `O=C1NCCOc2ccccc21`, the melting point was 110 to 112 °C.

`NS(=O)(=O)c1cc(C(=O)O)cc2c1CCCC2` showed a melting point of 275 to 277 °C. To `O=C(CCOc1ccccc1)NO` belongs 138 to 140 °C; to `Nc1cc(Cl)c(NC(=O)c2cnccn2)c(Cl)c1`, 195 to 197 °C; to `O=C(O)c1ccc(S(=O)(=O)CCO)cc1`, 189 to 191 °C.

On to `Cc1ccc(Cc2cnc(N)s2)cc1`, for which the melting point lay within 142 to 144 °C. To `Cc1cc(Cl)cc2nc(S)oc12` belongs 253 to 255 °C.

Consider `NC(=O)Cc1csc(-c2ccco2)n1`, for which the melting point is 125 to 127 °C.

`O=C(O)CCCCc1ccc(I)cc1` yielded a melting point of 109 to 111 °C.
